Like-named read-outs stand apart in the source and are kept apart here.

One assay addresses human Nav1.7 (Homo sapiens (Human), UniProt Q15858). Nature of the assay: FLIPR sodium dye assay for sodium channel blocking activity (recombinant Nav1.7/HEK293 cells). Format: cell-based.
Assay [1] relates to SNL-induced mechanical hyperalgesia. Nature of the assay: SNL-induced mechanical hyperalgesia model (paw pressure test, PWT). The format is in vivo, rat. The note with it: dosed orally at 100 mg/kg, vehicle 0.5% methyl cellulose, one hour before testing. Here is the method: In the Chung model, the spinal nerve ligation (SNL) model of neuropathic pain is used to produce mechanical hyperalgesia, thermal hyperalgesia, and tactile allodynia in rats. Surgery is performed under isoflurane/O2 inhalation anesthesia. Following induction of anesthesia a 3 cm incision is made and the left paraspinal muscles are separated from the spinous process at the L4-S2 levels. The L6 transverse process is carefully removed with a pair of small rongeurs to identify visually the L4-L6 spinal nerves. The left L5 (or L5 and L6) spinal nerve(s) is (are) isolated and tightly ligated with silk thread. […] The animals can also be assessed for response to noxious thermal stimuli or for tactile allodynia, as described below. […] Sensitivity to noxious mechanical stimuli was measured in animals using the paw pressure test to assess mechanical hyperalgesia. In rats, hind paw withdrawal thresholds (“PWT”), measured in grams, in response to a noxious mechanical stimulus were determined using an analgesymeter (Model 7200, commercially available from Ugo Basile of Italy), as described in Stein (Biochemistry & Behavior 31: 451-455 (1988)). […] PWT was determined once for each rat at each time point. PWT can be measured only in the injured paw, or in both the injured and non-injured paw. […]

[2] abbreviates: recombinant human Nav1.7 in HEK293.

human Nav1.7, sequence (Q15858 other isoform, or with tags, fused parts or gaps): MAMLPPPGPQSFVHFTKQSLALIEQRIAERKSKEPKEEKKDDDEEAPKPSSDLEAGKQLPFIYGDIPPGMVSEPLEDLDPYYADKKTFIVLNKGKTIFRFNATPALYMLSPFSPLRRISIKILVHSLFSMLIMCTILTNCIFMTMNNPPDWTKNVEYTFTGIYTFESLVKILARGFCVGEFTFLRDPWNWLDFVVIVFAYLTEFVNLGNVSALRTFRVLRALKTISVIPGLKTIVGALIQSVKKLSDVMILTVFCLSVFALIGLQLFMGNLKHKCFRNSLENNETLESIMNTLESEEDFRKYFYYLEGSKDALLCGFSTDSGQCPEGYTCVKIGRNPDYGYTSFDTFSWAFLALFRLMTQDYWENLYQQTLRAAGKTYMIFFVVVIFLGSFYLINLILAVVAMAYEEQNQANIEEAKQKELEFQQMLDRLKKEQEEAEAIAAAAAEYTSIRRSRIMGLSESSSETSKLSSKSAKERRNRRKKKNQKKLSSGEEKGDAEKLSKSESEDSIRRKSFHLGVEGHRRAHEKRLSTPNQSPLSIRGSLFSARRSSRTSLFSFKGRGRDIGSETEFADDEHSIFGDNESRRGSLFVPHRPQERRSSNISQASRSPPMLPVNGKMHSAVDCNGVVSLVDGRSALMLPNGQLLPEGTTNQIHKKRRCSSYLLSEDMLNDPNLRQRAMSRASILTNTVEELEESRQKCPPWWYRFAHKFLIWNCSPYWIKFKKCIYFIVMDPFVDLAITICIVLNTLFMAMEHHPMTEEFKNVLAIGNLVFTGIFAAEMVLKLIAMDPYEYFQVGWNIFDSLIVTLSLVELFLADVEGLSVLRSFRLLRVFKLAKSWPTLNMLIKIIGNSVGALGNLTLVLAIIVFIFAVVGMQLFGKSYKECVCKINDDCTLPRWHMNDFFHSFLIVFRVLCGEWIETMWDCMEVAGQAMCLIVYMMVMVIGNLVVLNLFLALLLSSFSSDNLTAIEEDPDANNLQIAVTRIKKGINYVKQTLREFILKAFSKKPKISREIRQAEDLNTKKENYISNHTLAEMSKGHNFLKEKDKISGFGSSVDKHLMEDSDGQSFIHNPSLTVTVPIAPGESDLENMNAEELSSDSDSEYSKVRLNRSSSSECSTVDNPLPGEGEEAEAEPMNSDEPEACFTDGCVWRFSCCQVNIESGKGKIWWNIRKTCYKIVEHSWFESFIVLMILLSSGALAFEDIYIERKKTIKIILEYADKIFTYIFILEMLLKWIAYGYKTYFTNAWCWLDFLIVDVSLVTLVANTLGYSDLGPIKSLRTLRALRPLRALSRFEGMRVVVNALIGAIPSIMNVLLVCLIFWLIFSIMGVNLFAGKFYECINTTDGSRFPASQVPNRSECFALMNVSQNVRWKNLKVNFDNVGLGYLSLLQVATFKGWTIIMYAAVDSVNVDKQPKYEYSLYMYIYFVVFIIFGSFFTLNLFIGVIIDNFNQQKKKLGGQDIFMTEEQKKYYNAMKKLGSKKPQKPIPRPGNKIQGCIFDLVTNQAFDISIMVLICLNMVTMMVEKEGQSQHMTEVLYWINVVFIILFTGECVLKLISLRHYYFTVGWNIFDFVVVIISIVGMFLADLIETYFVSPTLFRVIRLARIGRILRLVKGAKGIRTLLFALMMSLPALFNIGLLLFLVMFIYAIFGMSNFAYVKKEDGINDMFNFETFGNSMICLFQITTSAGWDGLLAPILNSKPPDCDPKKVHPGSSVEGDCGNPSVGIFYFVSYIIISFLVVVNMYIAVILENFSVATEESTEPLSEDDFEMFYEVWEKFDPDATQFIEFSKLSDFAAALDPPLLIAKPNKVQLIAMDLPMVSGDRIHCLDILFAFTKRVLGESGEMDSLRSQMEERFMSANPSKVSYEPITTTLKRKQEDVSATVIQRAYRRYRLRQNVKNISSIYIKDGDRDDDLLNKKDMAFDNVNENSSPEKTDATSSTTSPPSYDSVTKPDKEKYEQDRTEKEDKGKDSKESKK

On to `C[C@H](Oc1cc(C(N)=O)nc(-c2ccc(Oc3cc(Cl)ccc3F)cc2)n1)C(N)=O` [Cpd No. 92], for which, on human Nav1.7 (setting [2]), the IC50 (in general, the concentration at which inhibition is half-maximal) was 270 nM.

For the molecule `C[C@H](Oc1cc(C(N)=O)nc(-c2ccc(Oc3ccc(Cl)cc3F)cc2)n1)C(N)=O` [Cpd No. 93], the IC50 at human Nav1.7 (setting [2]) turned out to be 83 nM.

Take `C[C@H](Nc1cc(C(N)=O)nc(-c2ccc(Oc3cc(C(F)(F)F)ccn3)cc2)n1)C(N)=O` [compound 57]: the IC50 at human Nav1.7 (setting [2]) turned out to be 3250 nM.

Consider `C[C@H](Nc1cc(C(N)=O)nc(-c2ccc(Oc3ccc(OC(F)(F)F)cc3)cc2)n1)C(N)=O` [compound 84, (S)-6-((1-amino-1-oxopropan-2-yl)amino)-2-(4-(4-(trifluoromethoxy)phenoxy)phenyl)pyrimidine-4-carboxamide], for which the “SNL-induced mechanical hyperalgesia in rats” value in assay [1] was “reduced SNL-induced mechanical hyperalgesia”.

As to `C[C@H](Nc1cc(C(N)=O)nc(-c2ccc(Oc3ccc(F)cc3)c(CO)c2)n1)C(N)=O` [compound 97, (S)-6-((1-amino-1-oxopropan-2-yl)amino)-2-(4-(4-fluorophenoxy)-3-(hydroxymethyl)phenyl)pyrimidine-4-carboxamide], the 50% inhibitory concentration (IC50) at human Nav1.7 was determined as 5720 nM.

For `NC(=O)c1cc(N[C@H]2CCNC2=O)nc(-c2ccc(Oc3ccc(C(F)(F)F)cn3)cc2)n1` [compound 99, (S)-6-((2-oxopyrrolidin-3-yl)amino)-2-(4-((5-(trifluoromethyl)pyridin-2-yl)oxy)phenyl)pyrimidine-4-carboxamide], in assay [1], the “SNL-induced mechanical hyperalgesia in rats” value is on record as “reduced SNL-induced mechanical hyperalgesia”.
